The test system of assay [1] is ARPE19 cells. Nature of the assay: Hydrogen peroxide-induced cellular senescence (SA-β-Gal activity staining). Type of assay: cell-based, Human. The settings on record: 200 µM hydrogen peroxide, test substance 0.01, 0.1, 1 µM, 24 hours. The method, then:
(§1) Human retinal pigment epithelial cells (ARPE19) were cultured in a humidified incubator with 5% CO2 at 37°C. DMEM/F12 (Gibco) containing 10% fetal bovine serum and penicillin (100 U/ml)/streptomycin ([…]) was used as medium. The cells were cultured with the medium replaced with fresh medium every other day and were passaged using 0.25% trypsin containing 0.02% ethylenediaminetetraacetic acid (EDTA).
After cellular senescence caused by oxidative stress was promoted in ARPE19 cells using hydrogen peroxide (H2O2), the test substance (SE101B2L) was added at varying concentrations to evaluate inhibitory effects against cellular senescence. Inhibitory activity against cellular senescence was evaluated using senescence-associated β-galactosidase (SA-β-Gal) activity staining, which is well known as a marker for cellular senescence.
ARPE19 cells were seeded into a 96-well plate at 1 × 10^5 cells/well and cultured in an incubator with 5% CO2 at 37°C for 24 hours. […] Cells stained blue were observed under an optical microscope, and the degree of SA-β-gal activity was expressed as a percentage by measuring the number of cells stained blue in the cytoplasm among a total of 50 to 100 cells. The degree of senescence was quantified through measurement.

The test system of assay [2] is ARPE19 cells. Description: Cell viability under hydrogen peroxide-induced oxidative stress (CCK-8). The assay is classed as cell-based, Human. Particulars: 400 µM hydrogen peroxide, test substance 0.01, 0.1, 1, 2 µM, 24 hours. The method, then:
as §1
After oxidative stress was induced in human retinal pigment epithelial cells using hydrogen peroxide (H2O2), the test substance (SE101B2L) was added at varying concentrations to confirm changes in cell viability. CCK-8 was used to confirm cell viability.
ARPE19 cells were seeded into a 96-well plate at 1 × 10^4 cells/well and cultured in an incubator for 24 hours. The test substance was added to each treatment group at concentrations of 0, 0.01, 0.1, 1, and 2 µM, together with 400 µM hydrogen peroxide, followed by incubation for 24 hours. […] After incubation, a 96-well plate containing 90 µL of cell suspension per well was inoculated with 10 µL of ready-to-use CCK-8 solution. The plate was incubated for 2 hours, and the OD450 of the supernatant was measured to confirm cell viability through quantification.

“decylbenzoyl-Cys-Phe-Lys-amide [SE101B2L]”: in assay [1], the SA-β-gal activity entry is reported as “decreases SA-β-gal activity in a concentration-dependent manner”. Besides, in assay [2], the cell viability entry is “increases cell viability in a concentration-dependent manner”.

Source of the values: patent publication EP4813999A1, “NOVEL PEPTIDE DERIVATIVE AND PHARMACEUTICAL COMPOSITION FOR PREVENTING OR TREATING MACULAR DEGENERATION COMPRISING SAME” (Supadelixir Inc., priority 2023, dated 2026).
